Experimental data reported in ChEMBL document CHEMBL1149548, “Synthesis, SAR, and X-ray structure of novel potent DPPIV inhibitors: oxadiazolyl ketones” (Bioorg Med Chem Lett, 2007).
One block for each compound: values may come before it.

Tests used:
[1] = molecular target: Dipeptidyl peptidase 2 (Homo sapiens, UniProt Q9UHL4); experiment: Inhibition of DPP2
[2] = molecular target: Dipeptidyl peptidase 8 (Homo sapiens, UniProt Q6V1X1); experiment: Inhibition of DPP8
[3] = Volume of distribution at steady state in rat at 5 mg/kg, iv or 5 mg/kg, po; assay type: ADME, organism-based; details: in vivo, read-out: Vdss
[4] = test system: Rattus norvegicus; experiment: Inhibition of basal plasma DPP4 activity in Sprague-Dawley rat at 1 mg/kg after 24 hrs; details: read-out: Inhibition
[5] = test system: Rattus norvegicus; experiment: Inhibition of basal plasma DPP4 activity in Sprague-Dawley rat at 0.1 mg/kg after 1 hr; details: read-out: Inhibition
[6] = Cmax in monkey at 5 mg/kg, po; assay type: ADME, organism-based, Macaca mulatta; design: dose 5 mg/kg, route oral; details: rhesus monkey, in vivo
[7] = test system: Rattus norvegicus; experiment: Inhibition of basal plasma DPP4 activity in Sprague-Dawley rat at 10 mg/kg after 24 hrs; details: read-out: Inhibition
[8] = Plasma clearance in rat at 5 mg/kg, iv or 5 mg/kg, po; assay type: ADME, organism-based
[9] = Plasma clearance in monkey at 5 mg/kg, iv or 5 mg/kg, po; assay type: ADME, organism-based, Macaca mulatta; details: rhesus monkey
[10] = Plasma clearance in dog at 5 mg/kg, iv or 5 mg/kg, po; assay type: ADME, organism-based, Canis lupus familiaris
[11] = Half life in monkey at 5 mg/kg, po; assay type: ADME, organism-based, Macaca mulatta; design: dose 5 mg/kg, route oral; details: rhesus monkey, in vivo
[12] = Bioavailability in rat at 5 mg/kg, po; assay type: ADME, organism-based; details: in vivo
[13] = test system: Rattus norvegicus; experiment: Inhibition of basal plasma DPP4 activity in Sprague-Dawley rat at 0.1 mg/kg after 24 hrs; details: read-out: Inhibition
[14] = Volume of distribution at steady state in monkey at 5 mg/kg, iv or 5 mg/kg, po; assay type: ADME, organism-based, Macaca mulatta; details: rhesus monkey, in vivo, read-out: Vdss
[15] = Cmax in rat at 5 mg/kg, po; assay type: ADME, organism-based; design: dose 5 mg/kg, route oral; details: in vivo
[16] = test system: Rattus norvegicus; experiment: Inhibition of basal plasma DPP4 activity in Sprague-Dawley rat at 1 mg/kg after 1 hr; details: read-out: Inhibition
[17] = Half life in rat at 5 mg/kg, po; assay type: ADME, organism-based; design: dose 5 mg/kg, route oral; details: in vivo
[18] = Volume of distribution at steady state in dog at 5 mg/kg, iv or 5 mg/kg, po; assay type: ADME, organism-based, Canis lupus familiaris; details: in vivo, read-out: Vdss
[19] = test system: Rattus norvegicus; experiment: Inhibition of basal plasma DPP4 activity in Sprague-Dawley rat at 10 mg/kg after 1 hr; details: read-out: Inhibition
[20] = test system: Rattus norvegicus; experiment: Inhibition of basal plasma DPP4 activity in Sprague-Dawley rat at 0.03 mg/kg after 24 hrs; details: read-out: Inhibition
[21] = Bioavailability in dog at 5 mg/kg, po; assay type: ADME, organism-based, Canis lupus familiaris; details: in vivo
[22] = Half life in dog at 5 mg/kg, po; assay type: ADME, organism-based, Canis lupus familiaris; design: dose 5 mg/kg, route oral; details: in vivo
[23] = Bioavailability in monkey at 5 mg/kg, po; assay type: ADME, organism-based, Macaca mulatta; details: rhesus monkey, in vivo
[24] = test system: Rattus norvegicus; experiment: Inhibition of basal plasma DPP4 activity in Sprague-Dawley rat at 0.03 mg/kg after 1 hr; details: read-out: Inhibition

Chain of Dipeptidyl peptidase 8 (Q6V1X1 whole entry): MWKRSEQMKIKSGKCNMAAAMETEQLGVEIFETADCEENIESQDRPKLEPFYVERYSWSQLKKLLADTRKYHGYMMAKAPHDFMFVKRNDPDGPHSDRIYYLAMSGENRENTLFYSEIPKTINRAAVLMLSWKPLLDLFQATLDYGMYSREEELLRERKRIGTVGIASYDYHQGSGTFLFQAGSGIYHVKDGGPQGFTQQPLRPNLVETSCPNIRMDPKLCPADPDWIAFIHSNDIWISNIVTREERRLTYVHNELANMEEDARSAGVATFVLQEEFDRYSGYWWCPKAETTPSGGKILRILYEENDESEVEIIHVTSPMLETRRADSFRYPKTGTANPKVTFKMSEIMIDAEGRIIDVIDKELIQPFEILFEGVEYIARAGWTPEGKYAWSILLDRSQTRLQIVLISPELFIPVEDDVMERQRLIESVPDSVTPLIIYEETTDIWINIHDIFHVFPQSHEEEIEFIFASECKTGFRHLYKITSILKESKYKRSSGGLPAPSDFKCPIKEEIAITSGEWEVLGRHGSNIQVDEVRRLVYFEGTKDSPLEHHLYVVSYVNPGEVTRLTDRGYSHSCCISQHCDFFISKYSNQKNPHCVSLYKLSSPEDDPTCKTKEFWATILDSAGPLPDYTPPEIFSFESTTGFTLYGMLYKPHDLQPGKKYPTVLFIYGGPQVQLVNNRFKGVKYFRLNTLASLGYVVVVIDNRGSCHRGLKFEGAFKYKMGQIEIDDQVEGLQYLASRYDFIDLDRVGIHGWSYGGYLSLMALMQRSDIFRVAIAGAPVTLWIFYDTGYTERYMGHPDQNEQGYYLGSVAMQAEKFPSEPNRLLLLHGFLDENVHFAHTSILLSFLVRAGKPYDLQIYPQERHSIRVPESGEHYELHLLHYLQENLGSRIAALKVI

Compound: CC(C)(C)NCC(=O)N1CCC[C@H]1C(=O)c1nnc(C(C)(C)C)o1
IC50 [1]: > 10 µM

Compound: CCC(C)(C)c1nnc(C(=O)[C@@H]2C[C@H](F)CN2C(=O)CNC(C)(C)C)o1
IC50 [1]: 97.2 µM | IC50 [2]: < 0.39 µM

Compound: CC(C)(CO)NCC(=O)N1C[C@@H](F)C[C@H]1C(=O)c1nnc(C(C)(C)C)o1
Vd [3]: 14 L/kg | inhibition in vivo at 1 mg/kg [4]: 50% | inhibition in vivo at 0.1 mg/kg [5]: 82% | Cmax [6]: 210 ng/mL | inhibition in vivo at 10 mg/kg [7]: 74% | clearance [8]: 241 mL/min/kg | IC50 [1]: 146 µM | clearance [9]: 18 mL/min/kg | clearance [10]: 71 mL/min/kg | half-life [11]: 4.63 h | bioavailability [12]: 39% | inhibition in vivo at 0.1 mg/kg [13]: 82% | Vd [14]: 2.42 L/kg | Cmax [15]: 30 ng/mL | inhibition in vivo at 1 mg/kg [16]: 46% | half-life [17]: 4.15 h | Vd [18]: 4.87 L/kg | inhibition in vivo at 10 mg/kg [19]: 68% | inhibition in vivo at 0.03 mg/kg [20]: 76% | bioavailability [21]: 87% | half-life [22]: 1.47 h | bioavailability [23]: 35% | inhibition in vivo at 0.03 mg/kg [24]: 66%

Compound: Cc1cc(C)c(-c2nnc(C(=O)[C@@H]3CCCN3C(=O)CNC(C)(C)C)o2)c(C)c1
IC50 [1]: < 0.39 µM | IC50 [2]: < 0.39 µM

The remaining lines, values ahead:

IC50 [1]: < 0.39 µM | IC50 [2]: < 0.39 µM
Compound: CC(C)(C)NCC(=O)N1CCC[C@H]1C(=O)c1noc(C2(C)CCCCC2)n1

IC50 [1]: 8.66 µM | IC50 [2]: < 0.39 µM
Compound: CC(C)(C)NCC(=O)N1CCC[C@H]1C(=O)c1nnc(C2(C)CCCCC2)o1

IC50 [1]: < 0.39 µM | IC50 [2]: < 0.39 µM
Compound: CC(C)(C)NCC(=O)N1CCC[C@H]1C(=O)c1noc(-c2ccc(F)cc2)n1

IC50 [1]: < 0.39 µM | IC50 [2]: < 0.39 µM
Compound: CC(C)(C)NCC(=O)N1C[C@@H](F)C[C@H]1C(=O)c1nnc(C2CCCCC2)o1
